Data on two substances can be found in paper PMC1977804, “Somatostatin binding in normal and malignant human gastrointestinal mucosa” (British Journal of Cancer, 1992).

The test system of data set [1] is somatostatin binding sites, human gastric adenocarcinoma membranes. Put plainly: competitive displacement of 125I-tyr-11-somatostatin-14, human gastric adenocarcinoma plasma membranes. From the text: (§1) Br. J. Cancer (1992), 66, 391 395 ? Macmillan Press Ltd., 1992~~~~~~~~~~~~~~~~~~~~~~~~~~~~~~~~~~~~~~~~~~~~~~~~~~~~~~~~~~~~~~ Somatostatin binding in normal and malignant human gastrointestinal mucosa G.V. Miller, S.M. Farmery, L.F. Woodhouse & J.N. Primrose University Department of Surgery, St. James's University Hospital, Beckett Street, Leeds LS9 7TF, UK. Summary Somatostatin is a regulatory peptide implicated in the control of cellular proliferation in epithelial tissues and this regulation may occur directly via membrane bound receptor activation. The aim of this study was to investigate somatostatin binding in human gastrointestinal cancer and normal mucosa. Plasma membranes were prepared from specimens of tumour and normal mucosa from 51 patients undergoing surgical resection for malignancy (28 gastric, 23 colorectal). Using a competitive displacement assay, specific '251-tyrosine -1 -somatostatin-14 binding to plasma membranes was assessed and characterised in terms of receptor affinity (Kd) and maximum binding capacity (Bmax) as determined by Scatchard analysis. […] Similar affinity and binding capacity was demonstrable in normal mucosal samples. […] The functional significance of these low affinity binding sites requires elucidation to determine whether long-acting somatostatin analogues may have therapeutic benefit in gastrointestinal malignancy. Hormonal manipulation, by surgical or medical methods, has been used extensively in therapy for carcinoma of the breast, prostate, thyroid and in certain gut endocrine tumours (Horowitz et al., 1975; Higgins et al., 1941; Crile, 1957; Osei et al., 1985). There is, however, no currently defined role for endocrine therapy in non-endocrine gastrointestinal cancer. […] Any benefit from systemic therapy is usually abrogated by systemic toxicity (Rake et al., 1979; Engstrom et al., 1985; Bleiberg, 1990). For this reason a non-toxic, effective, treat- ment modality would be of value to improve the outlook for those patients with advanced disease. There is increasing evidence that tumours arising from the gastrointestinal tract are, at least in part, hormone depen- dent. Numerous hormones have now been implicated in the pathogenesis and development of gastrointestinal malig- nancy, including gastrin, epidermal growth factor, entero- pancreatic hormones and oestrogenic steroids (Sirinek et al., 1985; Watson et al., 1988; Li et al., 1980; Howatson & Carter, 1985; McMichael et al., 1980). […] Somatostatin and its analogues are good candidates for use as endocrine agents in the treatment of gastrointestinal cancer. The native peptide is widely distributed in the body and, amongst its many inhibitory actions, has a putative role as an anti-proliferative agent in both normal (Lehy et al., 1979) and malignant (Singh et al., 1986) tissue. The mechanisms involved in this anti-proliferative action have not, as yet, been confirmed. Both the native peptide and its analogues act at the somatotrophs of the anterior pituitary suppressing growth hormone production and release (Adrian et al., 1981). This may influence the proliferation of target tissues directly or may result in a substantial reduction in local growth factor release (Kirkegaard et al., 1984). Further, the production of other trophic hormones such as gastrin Correspondence: J.N. Primrose, University Department of Surgery, Clinical Sciences Building, St James's University Hospital, Beckett St, Leeds LS9 7TF, UK. Received 18 November 1991; and in revised form 9 March 1992. and insulin, either from normal cells or from hormonally active tumour cells, could be suppressed by somatostatin (Morris et al., 1988). The most interesting mechanism, how- ever, involves the interaction of the peptide with specific membrane bound receptors upon proliferating cells. […]

Data set [2] relates to somatostatin receptors, rat cerebral cortex membranes. Description: competitive displacement of 125I-tyr-11-somatostatin-14, rat cerebral cortex plasma membranes (positive control). It counts as binding, rat (Wistar).
Excerpt: as §1, with “cancer.” for “cancer. The native peptide is widely distributed in the body and, amongst its many inhibitory actions, has a putative role as an anti-proliferative agent in both normal (Lehy et al., 1979) and malignant (Singh et al., 1986) tissue. The mechanisms involved in this anti-proliferative action have not, as yet, been confirmed. Both the native peptide and its analogues act at the somatotrophs of the anterior pituitary suppressing growth hormone production and release (Adrian et al., 1981). This may influence the proliferation of target tissues directly or may result in a substantial reduction in local growth factor release (Kirkegaard et al., 1984). Further, the production of other trophic hormones such as gastrin Correspondence: J.N. Primrose, University Department of Surgery, Clinical Sciences Building, St James's University Hospital, Beckett St, Leeds LS9 7TF, UK. Received 18 November 1991; and in revised form 9 March 1992. and insulin, either from normal cells or from hormonally active tumour cells, could be suppressed by somatostatin (Morris et al., 1988). The most interesting mechanism, how- ever, involves the interaction of the peptide with specific membrane bound receptors upon proliferating cells.”

Data set [3] has as its system somatostatin binding sites, gastric body mucosal plasma membranes. Put plainly: competitive displacement of 125I-tyr-11-somatostatin-14, normal gastric body mucosa plasma membranes. On the set-up: species or system human. The following applies: 21 of 28 preparations, including mucosa of the patient with high affinity tumour, Scatchard/LIGAND, pH 7.4, 1 h, 35 °C, median (quartiles). From the text:
(§2) Br. J. Cancer (1992), 66, 391 395 ? Macmillan Press Ltd., 1992~~~~~~~~~~~~~~~~~~~~~~~~~~~~~~~~~~~~~~~~~~~~~~~~~~~~~~~~~~~~~~ Somatostatin binding in normal and malignant human gastrointestinal mucosa G.V. Miller, S.M. Farmery, L.F. Woodhouse & J.N. Primrose University Department of Surgery, St. James's University Hospital, Beckett Street, Leeds LS9 7TF, UK. Summary Somatostatin is a regulatory peptide implicated in the control of cellular proliferation in epithelial tissues and this regulation may occur directly via membrane bound receptor activation. The aim of this study was to investigate somatostatin binding in human gastrointestinal cancer and normal mucosa. Plasma membranes were prepared from specimens of tumour and normal mucosa from 51 patients undergoing surgical resection for malignancy (28 gastric, 23 colorectal). Using a competitive displacement assay, specific '251-tyrosine -1 -somatostatin-14 binding to plasma membranes was assessed and characterised in terms of receptor affinity (Kd) and maximum binding capacity (Bmax) as determined by Scatchard analysis. […] Similar affinity and binding capacity was demonstrable in normal mucosal samples. […] The functional significance of these low affinity binding sites requires elucidation to determine whether long-acting somatostatin analogues may have therapeutic benefit in gastrointestinal malignancy. […]
For orientation: In a radioligand displacement assay an active substance lowers the binding of a labelled ligand.

Data set [4] concerns somatostatin binding sites, colorectal adenocarcinoma plasma membranes. Put plainly: competitive displacement of 125I-tyr-11-somatostatin-14, human colorectal adenocarcinoma plasma membranes. Conditions: for Bmax: Table I, colorectal.
Excerpt: as §1

The conditions of data set [5]: native peptide; no reference printed for this sentence; cited from earlier work. The text has this: Br. J. Cancer (1992), 66, 391 395 ? Macmillan Press Ltd., 1992~~~~~~~~~~~~~~~~~~~~~~~~~~~~~~~~~~~~~~~~~~~~~~~~~~~~~~~~~~~~~~ Somatostatin binding in normal and malignant human gastrointestinal mucosa G.V. Miller, S.M. Farmery, L.F. Woodhouse & J.N. Primrose University Department of Surgery, St. James's University Hospital, Beckett Street, Leeds LS9 7TF, UK. Summary Somatostatin is a regulatory peptide implicated in the control of cellular proliferation in epithelial tissues and this regulation may occur directly via membrane bound receptor activation. The aim of this study was to investigate s ...

Data set [6] deals with somatostatin binding sites, normal colonic mucosa plasma membranes. Description: competitive displacement of 125I-tyr-11-somatostatin-14, normal colonic mucosa plasma membranes. The following applies: 15 of 23 preparations; Scatchard/LIGAND; pH 7.4, 1 h, 35 °C; median (quartiles). On the set-up: species or system human.
Excerpt: as §2

pKd: −log10 of the molar value. Read-outs that look alike come from different tables or passages of the source. Bridges are numbered along the chain shown (N, C = ends). Where no end group is shown, it is not given here. The star is where a group is joined. 125I = [125I]*

As a reminder, the pKd is the Kd on a negative log10 scale, so that one unit is a factor of ten. Consider “125I-tyrosine-11-somatostatin-14 (AGCKNFFWKTY(125I)TSC; disulfide 3-14; ends not checked; UniProt P61278 103-116, looked up, variant F11Y) [125I-tyr-11-somatostatin-14, radioligand made by Chloramine T iodination of tyr-11-somatostatin-14]”, for which the “Bmax, low affinity binding” value in data set [1] (22 of 28 tumours, Scatchard/LIGAND, pH 7.4, 1 h, 35 °C, median (quartiles)) is 1.2 (0.7-5.7) pmol mg-1 protein. Further, in data set [1] (22 of 28 tumours, Scatchard/LIGAND, pH 7.4, 1 h, 35 °C, median (quartiles), read-out: affinity (Kd), low affinity binding), the pKd is 6.77. In addition, the “increase in specific bound counts at 35 °C versus 21 °C” value in data set [2] (35 °C versus room temperature (21 °C)) is 20-30%.

As to somatostatin-14, the Bmax is 6.1 pmol mg-1 protein in data set [1] (Figure 2 inset, single representative experiment, Scatchard plot); 1.04 (0.23-6.23) pmol mg-1 protein in data set [1] (Table I, gastric, grade Mod, pH 7.4, 1 h, 35 °C, median (quartiles)); 1.17 (0.67-5.71) pmol mg-1 protein in data set [1] (Table I, gastric, grade Poor, pH 7.4, 1 h, 35 °C, median (quartiles)); 5.11 pmol mg-1 protein in data set [1] (Table I, gastric, grade Well, pH 7.4, 1 h, 35 °C, one sample); 1.04 (0.67 -3.36) pmol mg-1 protein in data set [1] (Table I, gastric, site: Antrum, pH 7.4, 1 h, 35 °C, median (quartiles)); 0.83 (0.25 -7.43) pmol mg-1 protein in data set [1] (Table I, gastric, site: Body, pH 7.4, 1 h, 35 °C, median (quartiles)). For the same substance, the Bmax in data set [1] (Table I, gastric, site: Cardia, pH 7.4, 1 h, 35 °C, median (quartiles)) is listed as 1.73 (1.23-5.11) pmol mg-1 protein; in data set [1] (Table I, gastric, stage I (TNM), pH 7.4, 1 h, 35 °C, one sample) it was 0.28 pmol mg-1 protein; in data set [1] (Table I, gastric, stage II (TNM), pH 7.4, 1 h, 35 °C, median (quartiles)), 0.79 (0.23-1.04) pmol mg-1 protein; in data set [1] (Table I, gastric, stage III (TNM), pH 7.4, 1 h, 35 °C, median (quartiles)), 1.24 (0.77-6.11) pmol mg-1 protein; in data set [1] (Table I, gastric, stage IV (TNM), pH 7.4, 1 h, 35 °C, one sample), 6.3 pmol mg-1 protein; in data set [4] (grade Mod, pH 7.4, 1 h, 35 °C, median (quartiles)) it was 1.72 (1.30-2.69) pmol mg-1 protein. Also, the Bmax in data set [4] (grade Poor, pH 7.4, 1 h, 35 °C, median (quartiles)) was 1.81 (0.74-2.87) pmol mg-1 protein; in data set [4] (grade Well, pH 7.4, 1 h, 35 °C, median (quartiles)), 1.75 (0.49-2.99) pmol mg-1 protein; in data set [4] (site: (R) Colon, pH 7.4, 1 h, 35 °C, median (quartiles)), 2.99 (2.12-3.94) pmol mg-1 protein; in data set [4] (site: Rectum, pH 7.4, 1 h, 35 °C, median (quartiles)) it was 1.67 (1.02-2.78) pmol mg-1 protein; in data set [4] (site: Sigmoid, pH 7.4, 1 h, 35 °C, median (quartiles)), 0.49 (0.11 -1.75) pmol mg-1 protein; in data set [4] (stage A (Dukes), pH 7.4, 1 h, 35 °C, one sample), 3.40 pmol mg-1 protein. The Bmax is on record as 1.72 (1.30-2.99) pmol mg-1 protein in data set [4] (stage B (Dukes), pH 7.4, 1 h, 35 °C, median (quartiles)); 1.48 (0.62-2.41) pmol mg-1 protein in data set [4] (stage C (Dukes), pH 7.4, 1 h, 35 °C, median (quartiles)); 0.21 pmol mg-1 protein in data set [2] (Figure 1 inset, single representative experiment, Scatchard plot by LIGAND); 0.7 (0.3-3.5) pmol mg-1 protein in data set [6]. For the same substance, the pKd in data set [1] (Figure 2 inset, single representative experiment, Scatchard plot, read-out: Kd) is 6.78; in data set [1] (one gastric carcinoma (one patient), Scatchard/LIGAND, read-out: Kd, high affinity receptors) it was 9.05; in data set [3] (read-out: Kd, low affinity high capacity binding), 6.74; in data set [4] (abstract, 17 colorectal cancers, Scatchard analysis, read-out: Kd, low affinity binding), 6.85; in data set [2] (Figure 1 inset, single representative experiment, Scatchard plot by LIGAND, read-out: Kd), 9.04; in data set [2] (Scatchard/LIGAND, HEPES-KOH pH 7.4, 1 h, 35 °C, median (range), read-out: receptor affinity (Kd)), 9.07. Further, the negative logarithm of the Kd (pKd) in data set [6] is 6.89. The “Bmax, low affinity high capacity binding” value in data set [1] (abstract, 22 gastric cancers, Scatchard analysis) is reported as 1.2 pmol mg-1 protein; in data set [3], 3.9 (1.2-6.6) pmol mg-1 protein; in data set [4] (17 of 23 preparations, Scatchard/LIGAND, pH 7.4, 1 h, 35 °C, median (quartiles)), 1.8 (1.2-2.9) pmol mg-1 protein; in data set [4] (abstract, 17 colorectal cancers, Scatchard analysis), 1.8 pmol mg-1 protein. Also, the “Bmax, high affinity receptors” value in data set [1] (one gastric carcinoma (one patient), Scatchard/LIGAND) was found to be 0.23 pmol mg-1 protein. The “half life in the circulation” value in data set [5] is given as “less than 3 min”.
